Measurements: ChEMBL document CHEMBL3351611, “Diversity-oriented synthesis-facilitated medicinal chemistry: toward the development of novel antimalarial agents” (J Med Chem, 2014)
Converted amounts (≈) assume the structure as drawn.

What was measured:
[1] = Lipophilicity, log D of the compound by HPLC method; type: physicochemical
hERG (KCNH2) = hERG (KCNH2) (Homo sapiens, UniProt Q12809); test: Displacement of [3H]astemizole from human ERG expressed in HEK293 cell membranes at 10 uM incubated for 75 mins by scintillation counting method; settings: HEK293 cell membranes that express hERG, probe [3H]astemizole
Plasmodium falciparum = test: Antimalarial activity against Plasmodium falciparum Dd2 assessed as inhibition of parasite proliferation; type: functional
[2] = Stability in mouse microsomes assessed as compound remaining at 1 uM after 1 hr at 37 degC by UPLC-MS method; type: ADME, Microsome; settings: read-out: Stability
[3] = Solubility in PBS buffet at pH 7.4 at 100 uM incubated for 18 hrs by UPLC-MS method; type: physicochemical; settings: for solubility: buffer, pH 7.4, 18 h, 100 µM
Plasmodium berghei = test: Antimalarial activity against Plasmodium berghei ANKA infected in CD1 Swiss albino mouse assessed as reduction in parasitemia; type: functional

Chain of hERG (KCNH2) (Q12809 whole entry): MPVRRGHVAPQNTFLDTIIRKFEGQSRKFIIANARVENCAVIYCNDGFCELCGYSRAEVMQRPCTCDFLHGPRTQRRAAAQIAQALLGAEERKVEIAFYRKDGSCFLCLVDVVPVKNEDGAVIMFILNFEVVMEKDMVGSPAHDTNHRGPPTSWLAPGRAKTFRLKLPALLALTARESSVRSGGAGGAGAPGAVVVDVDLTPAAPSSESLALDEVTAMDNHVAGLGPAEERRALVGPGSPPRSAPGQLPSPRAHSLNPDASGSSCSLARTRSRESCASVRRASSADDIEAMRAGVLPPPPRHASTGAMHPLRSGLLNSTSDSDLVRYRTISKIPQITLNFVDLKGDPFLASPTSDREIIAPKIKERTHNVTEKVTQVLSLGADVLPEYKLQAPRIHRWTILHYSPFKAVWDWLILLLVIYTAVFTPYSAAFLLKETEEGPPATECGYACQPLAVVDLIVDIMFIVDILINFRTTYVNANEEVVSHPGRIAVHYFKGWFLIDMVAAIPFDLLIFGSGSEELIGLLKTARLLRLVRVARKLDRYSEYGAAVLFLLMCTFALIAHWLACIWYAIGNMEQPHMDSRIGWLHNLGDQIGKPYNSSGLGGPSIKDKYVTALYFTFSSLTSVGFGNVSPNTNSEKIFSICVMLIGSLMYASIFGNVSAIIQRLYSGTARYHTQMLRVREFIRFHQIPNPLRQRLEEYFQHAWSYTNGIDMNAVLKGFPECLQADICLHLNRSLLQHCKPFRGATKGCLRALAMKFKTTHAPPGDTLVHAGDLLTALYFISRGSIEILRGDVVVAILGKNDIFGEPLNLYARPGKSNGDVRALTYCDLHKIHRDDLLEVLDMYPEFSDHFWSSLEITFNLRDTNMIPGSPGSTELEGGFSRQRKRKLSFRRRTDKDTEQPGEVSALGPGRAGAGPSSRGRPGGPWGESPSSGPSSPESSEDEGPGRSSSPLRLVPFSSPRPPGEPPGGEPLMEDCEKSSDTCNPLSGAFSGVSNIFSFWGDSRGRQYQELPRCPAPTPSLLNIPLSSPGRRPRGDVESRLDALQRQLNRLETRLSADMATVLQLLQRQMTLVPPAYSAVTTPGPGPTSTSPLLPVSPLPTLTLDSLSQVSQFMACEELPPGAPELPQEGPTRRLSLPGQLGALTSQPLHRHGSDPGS

Row | SMILES | logD [1] | inhibition at 1.25 h, 10 µM (hERG (KCNH2)) [%] | GI50 (Plasmodium falciparum) [µM] | remaining at 1 h, 1 µM [2] [%] | solubility at 18 h, 100 µM ([3]; PBS buffer, pH 7.4) [µM] | solubility [3] [µM] | inhibition (INH) (Plasmodium berghei) [%]
1 | C[C@@H]1CN([C@@H](C)CN(C)C)C(=O)c2cc(NC(=O)Nc3ccccc3)ccc2O[C@@H](C)CCCCO[C@H]1CN(C)S(=O)(=O)c1ccc(F)cc1 | 4.1 | 95 |  |  |  |  | 
2 | Cc1noc(C)c1NC(=O)Nc1ccc2c(c1)C(=O)N([C@@H](C)CO)C[C@@H](C)[C@H](CN(C)S(=O)(=O)c1ccc(F)cc1)OCCCC[C@H](C)O2 | 2.9 | 11 | 0.24 | < 5 |  |  | 
3 | Cc1noc(C)c1NC(=O)Nc1ccc2c(c1)C(=O)N(C(C)C)C[C@@H](C)[C@H](CN(C)S(=O)(=O)c1ccc(F)cc1)OCCCC[C@H](C)O2 | 4 | 0 | 0.022 | < 5 | < 5 |  | 
4 | COc1ccc(COC[C@H](C)N2C[C@@H](C)[C@H](CN(C)S(=O)(=O)c3ccc(F)cc3)OCCCC[C@H](C)Oc3ncc(F)cc3C2=O)cc1 |  |  | 0.162 |  |  | < 5 | 
5 | C[C@@H]1CN([C@@H](C)CN(C)C)C(=O)c2cccnc2O[C@@H](C)CCCCO[C@H]1CN(C)S(=O)(=O)c1ccc(F)cc1 |  |  | 0.231 | < 5 |  | > 100 | 
6 | CCN(CC)C[C@H](C)N1C[C@@H](C)[C@H](CN(C)S(=O)(=O)c2ccc(F)cc2)OCCCC[C@H](C)Oc2ncccc2C1=O |  |  | 0.079 | < 5 |  | > 100 | 
7 | C[C@@H]1CN([C@@H](C)CN(C)Cc2cc(F)ccc2F)C(=O)c2cccnc2O[C@@H](C)CCCCO[C@H]1CN(C)S(=O)(=O)c1ccc(F)cc1 |  |  | 0.01 |  |  | < 5 | 
8 | COc1ccc(COC[C@H](C)N2C[C@@H](C)[C@H](CN(C)S(=O)(=O)c3ccc(F)cc3)OCCCC[C@H](C)Oc3ccsc3C2=O)cc1 |  |  | 0.481 |  |  | < 5 | 
9 | COc1ccc(COC[C@H](C)N2C[C@@H](C)[C@H](CN(C)S(=O)(=O)c3ccc(F)cc3)OCCCC[C@H](C)Oc3c(cnn3C)C2=O)cc1 |  |  | 0.375 |  |  | 15 (≈ 10.1 µg/mL) | 
10 | COc1ccc(COC[C@H](C)N2CC[C@H](CN(C)S(=O)(=O)c3ccc(F)cc3)OCCCC[C@H](C)Oc3ccc(NC(=O)Nc4c(C)noc4C)cc3C2=O)cc1 |  |  | 0.02 |  |  | < 5 | 
11 | Cc1noc(C)c1NC(=O)Nc1ccc2c(c1)C(=O)N([C@@H](C)CN(C)C)CC[C@H](CN(C)S(=O)(=O)c1ccc(F)cc1)OCCCC[C@H](C)O2 |  |  | 0.071 | 2 |  | 99 (≈ 71 µg/mL) | 
12 | COc1ccc(COC[C@H](C)N2C[C@@H](C)[C@H](CN(C)S(=O)(=O)c3ccc(F)cc3)OCCCCCOc3ccc(NC(=O)Nc4c(C)noc4C)cc3C2=O)cc1 |  |  | 0.006 |  |  |  | 
13 | Cc1noc(C)c1NC(=O)Nc1ccc2c(c1)C(=O)N([C@@H](C)CN(C)C)C[C@@H](C)[C@H](CN(C)S(=O)(=O)c1ccc(F)cc1)OCCCCCO2 |  |  | 0.111 |  |  | > 100 | 
14 | COc1ccc(COC[C@H](C)N2C[C@@H](C)[C@H](CN(C)S(=O)(=O)c3ccc(F)cc3)OCCCCCNc3ccc(NC(=O)Nc4c(C)noc4C)cc3C2=O)cc1 |  |  | 0.076 |  |  | < 5 | 
15 | COc1ccc(COC[C@H](C)N2C[C@@H](C)[C@H](CN(C)S(=O)(=O)c3ccc(F)cc3)OCCCCOc3ccc(NC(=O)Nc4c(C)noc4C)cc3C2=O)cc1 |  |  | 0.017 | 17 |  | < 5 | 
16 | CNC[C@H](C)N1C[C@@H](C)[C@H](CN(C)S(=O)(=O)c2ccc(F)cc2)OCCCCOc2ccc(NC(=O)Nc3c(C)noc3C)cc2C1=O |  |  | 0.624 | 65 |  | > 100 | 
17 | Cc1noc(C)c1NC(=O)Nc1ccc2c(c1)C(=O)N([C@@H](C)CN(C)C)C[C@@H](C)[C@H](CN(C)S(=O)(=O)c1ccc(F)cc1)OCCCCO2 |  |  | 0.091 | 15 |  | > 100 | 
18 | COc1ccc(COC[C@H](C)N2C[C@@H](C)[C@H](CN(C)S(=O)(=O)c3ccc(F)cc3)OCCCOc3ccc(NC(=O)Nc4c(C)noc4C)cc3C2=O)cc1 |  |  | 0.767 |  |  | < 5 | 
19 | COc1ccc(COC[C@H](C)N2C[C@@H](C)[C@H](CN(C)S(=O)(=O)c3ccc(F)cc3)OCCOc3ccc(NC(=O)Nc4c(C)noc4C)cc3C2=O)cc1 |  |  | 2.97 |  |  | 6 (≈ 4.61 µg/mL) | 

Row | SMILES | logD [1] | inhibition at 1.25 h, 10 µM (hERG (KCNH2)) [%] | GI50 (Plasmodium falciparum) [µM] | remaining at 1 h, 1 µM [2] [%] | solubility at 18 h, 100 µM ([3]; PBS buffer, pH 7.4) [µM] | solubility [3] [µM] | inhibition (INH) (Plasmodium berghei) [%]
20 | COc1ccc(COC[C@H](C)N2C[C@@H](C)[C@H](CN(C)S(=O)(=O)c3ccc(F)cc3)Oc3ccc(NC(=O)Nc4c(C)noc4C)cc3C2=O)cc1 |  |  | > 5 |  |  |  | 
21 | COc1ccc(COC[C@H](C)N2C[C@@H](C)[C@H](CN(C)S(=O)(=O)c3ccc(F)cc3)OCCCC[C@H](C)Oc3ccc(NC(=O)Nc4c(C)noc4C)cc3C2=O)cc1 |  |  | 0.00088 |  |  | < 5 | 
22 | C[C@@H]1CN([C@@H](C)CN(C)C)C(=O)c2cc(NC(=O)Nc3ccc(F)cc3)ccc2O[C@@H](C)CCCCO[C@H]1CN(C)S(=O)(=O)c1ccc(F)cc1 | 3.5 |  | 0.0014 | < 5 |  | < 5 | 
23 | C[C@@H]1CN([C@@H](C)CN(C)C)C(=O)c2cc(NC(=O)NC3COC3)ccc2O[C@@H](C)CCCCO[C@H]1CN(C)S(=O)(=O)c1ccc(F)cc1 | 1.1 |  | 0.032 | 8 |  | > 100 | 
24 | CNC[C@H](C)N1C[C@@H](C)[C@H](CN(C)S(=O)(=O)c2ccc(F)cc2)OCCCC[C@H](C)Oc2ccc(NC(=O)Nc3c(C)noc3C)cc2C1=O | 1.7 |  | 0.32 | 51 |  | > 100 | 
25 | CCN(CC)C[C@H](C)N1C[C@@H](C)[C@H](CN(C)S(=O)(=O)c2ccc(F)cc2)OCCCC[C@H](C)Oc2ccc(NC(=O)Nc3c(C)noc3C)cc2C1=O | 3.1 |  | 0.005 | 5 |  | 8 (≈ 6.07 µg/mL) | 
26 | Cc1noc(C)c1NC(=O)Nc1ccc2c(c1)C(=O)N([C@@H](C)C[N+](C)(C)[O-])C[C@@H](C)[C@H](CN(C)S(=O)(=O)c1ccc(F)cc1)OCCCC[C@H](C)O2 | 1.5 |  | 0.16 | 35 |  | > 100 | 
27 | Cc1noc(C)c1NC(=O)Nc1ccc2c(c1)C(=O)N([C@@H](C)CNCC(C)(C)C)C[C@@H](C)[C@H](CN(C)S(=O)(=O)c1ccc(F)cc1)OCCCC[C@H](C)O2 | 3.8 |  | 0.014 | 5 |  | 7 (≈ 5.41 µg/mL) | 
28 | Cc1noc(C)c1NC(=O)Nc1ccc2c(c1)C(=O)N([C@@H](C)CNCC(F)(F)F)C[C@@H](C)[C@H](CN(C)S(=O)(=O)c1ccc(F)cc1)OCCCC[C@H](C)O2 | 3.9 | 15 | 0.009 | < 5 |  |  | 
29 | Cc1noc(C)c1NC(=O)Nc1ccc2c(c1)C(=O)N([C@@H](C)CN1CCOCC1)C[C@@H](C)[C@H](CN(C)S(=O)(=O)c1ccc(F)cc1)OCCCC[C@H](C)O2 | 3.5 | 1 | 0.105 | < 5 |  | 29 (≈ 22.4 µg/mL) | 
30 | COc1ccc(COC[C@H](C)N2C[C@@H](C)[C@H](CN(C)S(=O)(=O)c3ccc(F)cc3)OCCCC[C@H](C)OCCC2=O)cc1 |  |  | 3.41 |  |  | < 5 | 
31 | COc1ccc(COC[C@H](C)N2C[C@@H](C)[C@H](CN(C)S(=O)(=O)c3ccc(F)cc3)OCCCC[C@H](C)Oc3ccc(F)cc3C2=O)cc1 |  |  | 0.162 |  |  | < 5 | 
32 | COc1ccc(COC[C@H](C)N2C[C@@H](C)[C@H](CN(C)S(=O)(=O)c3ccc(F)cc3)OCCCC[C@H](C)Oc3cc(F)ccc3C2=O)cc1 |  |  | 0.038 |  |  | < 5 | 
33 | COc1ccc(COC[C@H](C)N2C[C@@H](C)[C@H](CN(C)S(=O)(=O)c3ccc(F)cc3)OCCCC[C@H](C)Oc3cc(C(F)(F)F)ccc3C2=O)cc1 |  |  | 0.048 |  |  | < 5 | 
34 | COc1ccc(COC[C@H](C)N2C[C@@H](C)[C@H](CN(C)S(=O)(=O)c3ccc(F)cc3)OCCCC[C@H](C)Oc3cccnc3C2=O)cc1 |  |  | 0.403 |  |  | < 5 | 
35 | COc1ccc(COC[C@H](C)N2C[C@@H](C)[C@H](CN(C)S(=O)(=O)c3ccc(F)cc3)OCCCC[C@H](C)Oc3ncccc3C2=O)cc1 |  |  | 0.059 |  |  | < 5 | 
36 | COc1ccc(COC[C@H](C)N2C[C@@H](C)[C@H](CN(C)S(=O)(=O)c3ccc(F)cc3)OCCCC[C@H](C)Oc3nccnc3C2=O)cc1 |  |  | 0.214 |  |  | < 5 | 
37 | C[C@H]1[C@H](OC(=O)CCC(=O)O)O[C@@H]2O[C@@]3(C)CC[C@H]4[C@H](C)CC[C@@H]1[C@@]24OO3 [ARTESUNATE] |  |  |  |  |  |  | 97
